Experimental data published in patent US20230144023A1, “USE OF BUTYLPHTHALIDE AND DERIVATIVE THEREOF” (CSPC NBP PHARMACEUTICAL CO., LTD, priority 2020, published 2023).

Assays:
[1] = test system: paclitaxel (albumin bound) chemotherapy-induced peripheral neuropathy; test: Paclitaxel (albumin bound) chemotherapy-induced peripheral neuropathy in rats, butylphthalide intragastric administration (Example 2); format: in vivo, SD (Sprague Dawley) rats; details: compared with the model group
Protocol: The model group was given vegetable oil at the same frequency and with the same administration method as NBP. The normal group was given normal saline at the same frequency and with the same administration method as ab-PTX, and was given vegetable oil at the same frequency and with the same administration method as NBP. […] (2) Thermal pain threshold: measurements were performed on days −1, 7, and 14. Method: IITC Life Science Electronic Von Frey Anesthesio meter was used and the intensity of the light source was adjusted to obtain a baseline of thermal pain threshold of about 3-6 s. […] The rats were placed in a plastic compartment on a glass plate, to make the planta centers of the rats be exposed to the light source. […] (3) Mechanical stimulus pain threshold: measurements were performed on days 0, 6, and 13. Method: the rats were placed in a plastic compartment on a wire mesh, left to stand still for 15 min, stimulated using a stimulation probe with a diameter of 0.4 mm of the IITC Life Science Electronic Von Frey Anesthesio meter at the planta centers of the rats by gradually increasing the force until reflexive withdrawal of the rats.

[2] = test system: A549; test: In vitro tumor cell proliferation, MTT (Example 5); format: cell-based; details: Homo sapiens, 30 μM NBP alone, 72 h, read-out: Inhibition rate
Protocol: (§1) This experiment includes a monotherapy group of ab-PTX, a combined therapy group (ab-PTX/NBP), and an NBP group. Different drug concentration gradients were set for each group.
(§2) ab-PTX/NBP group: the final concentration of NBP was 30 μM, and the concentration gradient of ab-PTX was the same as that of the monotherapy group.
(§3) Monotherapy group of NBP: NBP was 2× serially diluted from an initial concentration of 480 μM to 8 concentrations: 480, 240, 120, 60, 30, 15, 7.5, and 3.75 μM, respectively.
(§4) The action time of the drug was 72 h.
(§5) 24 h after adherence, 100 μL of the culture solution containing different concentration gradients of ab-PTX was added to each well of the monotherapy group of ab-PTX; 100 μL of the culture solution containing different concentration gradients of ab-PTX and 30 μM NBP was added to each well of the combined therapy group of ab-PTX/NBP; 100 μL of the culture solution containing different concentration gradients of NBP was added to each well of the monotherapy group of NBP; 3 repeated wells were provided for each concentration of each drug, and the blank wells (only culture medium was present) and the normal wells (drug concentration was 0) were provided.
(§6) The experiment was repeated three times, and the IC50 value was expressed as the mean±SD of the results of the 3 experiments.

[3] = test system: HT29; test: In vitro tumor cell proliferation, MTT (Example 5); format: cell-based; details: Homo sapiens, HT-29, 30 μM NBP alone, 72 h, read-out: Inhibition rate
Protocol: as §1, §2, §3, §4, §5, §6

[4] = test system: JIMT-1; test: In vitro tumor cell proliferation, MTT (Example 5); format: cell-based; details: Homo sapiens, 30 μM NBP alone, 72 h, read-out: Inhibition rate
Protocol: as §1, §2, §3, §4, §5, §6

[5] = test system: SK-OV-3; test: In vitro tumor cell proliferation, MTT (Example 5); format: cell-based; details: Homo sapiens, 30 μM NBP alone, 72 h, read-out: Inhibition rate
Protocol: as §1, §2, §3, §4, §5, §6

[6] = test system: MM.1S xenograft tumor; test: Influence of NBP on in vivo anti-tumor efficacy of Bortezomib, MM.1S xenograft (Example 8); design: species or system Nu/Nu mice
Protocol: After in vitro resuscitation and passage of MM.1S cells to a sufficient amount, the cells were counted by a microscope, and diluted with a serum-free medium to adjust the cell count to about 1×10^8 cells/mL. The cell suspension was kept in an ice-water bath. The MM.1S cell suspension was extracted by a sterile syringe and inoculated into the subcutaneous tissue of the forelimb axilla of the Nu/Nu mice. […] Monotherapy group of Palbociclib: intragastric administration at 70 mg/kg, qd (the administration was commenced on day 0); […] The solvent group was given the solvent at the same frequency and with the same administration method as Bortezomib and NBP. The administration period was 16 days, and the administration volume was 10 mL/kg. […] Animals were weighed at set time once per day after the commencement of administration. After animals were grouped, the long diameter and the short diameter of the tumor were measured twice every week. […] V=1⁄2×A×B^2 […] (4) Tumor growth inhibition rate: Note: V: tumor volume; A: tumor length; B: tumor width; RTV: relative tumor volume; TVnd: tumor volume on day n; TV0d: tumor volume on day 0; […]: mean relative tumor volume on day n; TVXn: mean tumor volume of the therapy group on day n; TVX0: mean tumor volume of the therapy group on day 0; TVMn: mean tumor volume of the solvent group on day n; and TVM0: mean tumor volume of the solvent group on day 0 At the end of the experiment, after the animals were euthanized by CO2 asphyxiation, the tumors were excised and weighed.

[7] = PK of Bortezomib and butylphthalide in plasma of MM.1S tumor-bearing mice (Example 8); format: in vivo, Nu/Nu mice
Protocol: Monotherapy group of Bortezomib: administered by intraperitoneal injection at 0.5 mg/kg, biw (on days 0, 3, 7, 10, and 15);
Monotherapy group of NBP: administered by transoral gavage at 60 mg/kg, bid (the administration was commenced on day 0), and the second dose of NBP was administered with an interval from the first dose of ≥4 h;
Monotherapy group of Palbociclib: intragastric administration at 70 mg/kg, qd (the administration was commenced on day 0);
Combined therapy group of NBP/Bortezomib: the administration frequency and dose were the same as the frequency and dose of the monotherapy group of NBP and the monotherapy group of Bortezomib, respectively.
Combined therapy group of Bortezomib/Palbociclib: the administration frequency and dose were the same as the frequency and dose of the monotherapy group of Bortezomib and the monotherapy group of Palbociclib, respectively.
Combined therapy group of NBP/Bortezomib/Palbociclib: the administration frequency and dose were the same as the frequency and dose of the monotherapy group of NBP, the monotherapy group of Bortezomib, and the monotherapy group of Palbociclib, respectively.
Before administration of the last dose of Bortezomib (0 h), and 5 min, 15 min, 30 min, 1 h, 2 h, 4 h, 8 h, 24 h after the administration, blood was sampled (as detailed in Table 8) (except that blood was sampled from the mice in the solvent group only at 0 h), anticoagulated with heparin, and centrifuged to separate plasma, which was stored at −80° C. for later use. Bortezomib and butyphthalide in the plasma were determined by protein precipitation-LC/MS/MS.

[8] = day 14, Bor 0.5 mg/kg, Pal 70 mg/kg, NBP 60 mg/kg, alone or combined
[9] = day 14, Bor 0.5 mg/kg, Pal 70 mg/kg, NBP 60 mg/kg, alone or combined, mean, n=6
[10] = NBP 60 mg/kg gavage, Bor 0.5 mg/kg, Pal 70 mg/kg, mean ± SD, n=6

CCCCC1OC(=O)c2ccccc21 (stereo not drawn) [NBP, 3-n-butylphthalide]
body weights of the rats ([1]; NBP 3, 10 and 30 mg/kg bid, duloxetine hydrochloride 15 mg/kg qd, intragastric, throughout administration): not obviously changed | mechanical pain threshold ([1]; day 6, NBP 30 mg/kg bid p.o., P<0.05): significantly decreased | thermal pain threshold ([1]; day 7, NBP 30 mg/kg bid p.o., P<0.05): significantly decreased | mechanical pain threshold ([1]; day 13, NBP 3 mg/kg bid p.o.): had a decreasing trend, but did not have statistical difference | mechanical pain threshold ([1]; day 13, NBP 10 and 30 mg/kg bid, duloxetine hydrochloride 15 mg/kg qd, P<0.05): significantly decreased | thermal pain threshold ([1]; day 14, NBP 3, 10 and 30 mg/kg bid, duloxetine hydrochloride 15 mg/kg qd, P<0.05): significantly decreased | inhibition at 30 µM [2]: 5.12 ± 7.36% | inhibition at 30 µM [3]: 10.1 ± 7.94% | inhibition at 30 µM [4]: 7.39 ± 13.2% | inhibition at 30 µM [5]: 12.4 ± 7.41% | influence of NBP on the tumor inhibition efficacy of Bortezomib ([6]; NBP/Bortezomib 60/0.5 mg/kg compared with monotherapy group of Bortezomib, end of experiment): did not have obvious negative influence | influence of NBP on the antitumor efficacy of combined therapy of Bortezomib/Palbociclib ([6]; NBP/Bortezomib/Palbociclib compared with Bortezomib/Palbociclib, end of experiment): did not have obvious negative influence | body weights of the mice ([6]; between groups, P>0.05): no significant difference | Body weight ([6]; day 14, Bor 0.5 mg/kg i.p. biw, Pal 70 mg/kg qd i.g., NBP 60 mg/kg bid gavage, alone or combined, mean, n=6): 24.9 g | T/C % [6, 8]: 73.8% | TGI % [6, 8]: 25.8% | RTV [6, 9]: 7.2 | TV [6, 9]: 938.1 mm^3 | Tumor weight inhibition rate ([6]; end of experiment, Bor 0.5 mg/kg, Pal 70 mg/kg, NBP 60 mg/kg, alone or combined): 36.9% | Tumor weight ([6]; end of experiment, Bor 0.5 mg/kg, Pal 70 mg/kg, NBP 60 mg/kg, alone or combined, mean, n=6, in g (unit assumed)): 1.040 | influence of NBP on the in vivo pharmacokinetic behaviors of monotherapy of Bortezomib and combined therapy of Bortezomib/Palbociclib ([7]; NBP 60 mg/kg bid): did not have obvious influence | CI of NBP [7, 10]: 2880 ± 1730 mL/min/kg | Vd of NBP [7, 10]: 1445 ± 298 L/kg | AUC(0-t) ([7]; Nu/Nu, mouse, plasma, po, NBP 60 mg/kg gavage, Bor 0.5 mg/kg, Pal 70 mg/kg, mean ± SD, n=6, read-out: AUC0-t of NBP in plasma): 236 ± 100 ng·h/mL | Cmax ([7]; Nu/Nu, mouse, plasma, po, NBP 60 mg/kg gavage, Bor 0.5 mg/kg, Pal 70 mg/kg, mean ± SD, n=6, read-out: Cmax of NBP in plasma): 117 ± 88 ng/mL | MRT last ([7]; Nu/Nu, mouse, plasma, po, NBP 60 mg/kg gavage, Bor 0.5 mg/kg, Pal 70 mg/kg, mean ± SD, n=6, read-out: MRT0-t of NBP): 3.1 ± 0.6 h | half-life ([7]; Nu/Nu, mouse, plasma, po, NBP 60 mg/kg gavage, Bor 0.5 mg/kg, Pal 70 mg/kg, mean ± SD, n=6, read-out: t1/2 of NBP in plasma (converted)): 10.1 ± 9.7 h
